In PubChem BioAssay (NCI) one finds GI50 and TGI data, which are given here for 8 compounds.

Some test systems named below: OVCAR-8 ovarian; OVCAR-4 ovarian; UO-31 renal; T-47D breast; UACC-62 melanoma; SK-MEL-2 melanoma; SF-295 CNS; LOX IMVI melanoma; SF-539 CNS; DU-145 prostate.
Common to all, as to assay: DTP human tumour cell line panel, 48 h

Structures are written as SMILES.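 Cultured in 96-well plates, cells were exposed to test compound for 48 hours across five concentrations. GI50 marks 50% less growth. Definition used: TGI = concentration required for complete inhibition of growth.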

One may read the GI50 as the concentration at which growth is held to half of that of the control. As usually defined, the TGI is the concentration giving total growth inhibition. A higher TGI goes with lower sensitivity of the cells. Regarding `O=C1c2ccccc2-c2c1c1ccc([N+](=O)[O-])cc1c(=O)n2CCNCCCNCCn1c2c(c3ccc([N+](=O)[O-])cc3c1=O)C(=O)c1ccccc1-2`, the concentration for 50% growth inhibition (GI50) in the assay on OVCAR-8 ovarian was 0.0989 µM; with OVCAR-4 ovarian, 0.215 µM; in the assay with UO-31 renal, 0.541 µM; in the assay on T-47D breast, 2.07 µM; in the assay on UACC-62 melanoma, 0.372 µM; in the assay on SK-MEL-2 melanoma, 4 µM. Besides, the GI50 was 0.0715 µM in the assay with SF-295 CNS, 0.0791 µM in the assay on LOX IMVI melanoma, 0.872 µM in the assay with SF-539 CNS and 0.96 µM in the assay on DU-145 prostate. The TGI was found to be 8.76 µM with OVCAR-8 ovarian; 4.92 µM with OVCAR-4 ovarian; 6.84 µM with UO-31 renal; 11.3 µM in the assay with T-47D breast; 2.03 µM in the assay with UACC-62 melanoma; 21.7 µM in the assay with SK-MEL-2 melanoma. Moreover, the concentration for total growth inhibition (TGI) was 19.9 µM with SF-295 CNS, 2.55 µM in the assay with LOX IMVI melanoma, 6.04 µM in the assay with SF-539 CNS and 21.1 µM in the assay with DU-145 prostate.

In the case of `COc1ccc(Nc2ncccc2/C=C/C(=O)c2cc(OC)c(OC)c(OC)c2)cc1`, the GI50 is 1.56 µM in the assay on OVCAR-8 ovarian; 1.62 µM in the assay on OVCAR-4 ovarian; 1.12 µM in the assay with UO-31 renal; 1.67 µM in the assay on T-47D breast; 1.56 µM with UACC-62 melanoma; 1.47 µM with SK-MEL-2 melanoma. The GI50 with SF-295 CNS is 1.85 µM; in the assay with LOX IMVI melanoma, 1.23 µM; with SF-539 CNS, 2.04 µM; in the assay on DU-145 prostate, 1.59 µM. Further, the TGI came out at 4.22 µM with OVCAR-8 ovarian; 3.47 µM with OVCAR-4 ovarian; 2.33 µM with UO-31 renal; 4.03 µM in the assay on T-47D breast; 3.3 µM in the assay on UACC-62 melanoma; 2.99 µM in the assay on SK-MEL-2 melanoma. In addition, the total growth inhibition concentration (TGI) in the assay with SF-295 CNS was 5.59 µM; in the assay with LOX IMVI melanoma it was 2.48 µM; in the assay with SF-539 CNS, 5.15 µM; in the assay on DU-145 prostate it was 2.93 µM.

For `C=C(C)C(=O)OC1CC2(C)OC2CC(OC(C)=O)/C(C)=C/C2OC(=O)C(=C)C21` (stereo not given), the total growth inhibition concentration (TGI) with OVCAR-8 ovarian is 18.7 µM; in the assay on OVCAR-4 ovarian, 23.7 µM; in the assay with UO-31 renal, 12.5 µM; with T-47D breast, 14.4 µM; with UACC-62 melanoma, 17.8 µM; with SK-MEL-2 melanoma it was 18.1 µM. In addition, the concentration for total growth inhibition (TGI) with SF-295 CNS worked out at 30.3 µM; in the assay on LOX IMVI melanoma it was 7.67 µM; in the assay on SF-539 CNS, 8.57 µM; in the assay on DU-145 prostate, 4.7 µM.

On to `Cc1ccccc1S(=O)(=O)N1[C@H](c2ccc(Cl)cc2)C(C(=O)N[C@@H](Cc2ccccc2)C(N)=O)=C[C@@H]1C(C)(C)C`, for which the GI50 was 5.95 µM with OVCAR-8 ovarian; 6.25 µM with OVCAR-4 ovarian; 4.23 µM with UO-31 renal; 5 µM in the assay with T-47D breast; 5.76 µM with UACC-62 melanoma; 9.59 µM with SK-MEL-2 melanoma. Besides, the GI50 was 2.8 µM in the assay on SF-295 CNS, 6.98 µM in the assay with LOX IMVI melanoma, 6.61 µM in the assay with SF-539 CNS and 8.26 µM in the assay on DU-145 prostate. Besides, the concentration for total growth inhibition (TGI) in the assay with OVCAR-8 ovarian came to 25.4 µM; in the assay with OVCAR-4 ovarian, 13.4 µM; with UO-31 renal, 10.7 µM; in the assay on T-47D breast, 20.2 µM; in the assay with UACC-62 melanoma, 12.8 µM; with SK-MEL-2 melanoma, 17.6 µM. Moreover, the TGI in the assay on SF-295 CNS is 10 µM; in the assay with LOX IMVI melanoma it was 14 µM; in the assay with SF-539 CNS, 13.4 µM; in the assay with DU-145 prostate it was 20.4 µM.

Take `COc1ccc(C2=CC(c3cc(OC)c(OC)c(OC)c3)NC(=O)N2)cc1OC` (stereo not given): the GI50 in the assay with OVCAR-8 ovarian was 4.25 µM; with OVCAR-4 ovarian, 3.61 µM; with UO-31 renal it was 2.54 µM; in the assay with T-47D breast, 2.63 µM; in the assay with UACC-62 melanoma, 4.31 µM; with SK-MEL-2 melanoma it was 4.96 µM. The GI50 in the assay with SF-295 CNS is 2.34 µM; in the assay on LOX IMVI melanoma, 3.05 µM; in the assay with SF-539 CNS it was 2.28 µM; with DU-145 prostate, 1.9 µM. Further, the TGI in the assay on OVCAR-8 ovarian was more than 100 µM; in the assay on OVCAR-4 ovarian, more than 100 µM; in the assay on UO-31 renal, 12.8 µM; in the assay on T-47D breast it was 28.9 µM; in the assay with UACC-62 melanoma, 16.8 µM; in the assay on SK-MEL-2 melanoma, 24.3 µM. Moreover, the TGI in the assay on SF-295 CNS was 7.87 µM; in the assay on LOX IMVI melanoma, 11.7 µM; in the assay on SF-539 CNS it was 5.94 µM; in the assay on DU-145 prostate it was 4.45 µM.

In the case of `O=C(Nc1ccc(Cl)cc1)c1cc2c(cc1O)[nH]c1ccccc12`, the GI50 is 3.25 µM in the assay on OVCAR-8 ovarian; 4.66 µM in the assay on OVCAR-4 ovarian; 2.86 µM in the assay on UO-31 renal; 2.37 µM with T-47D breast; 2.49 µM with UACC-62 melanoma; 2.47 µM in the assay with SK-MEL-2 melanoma. Further, the GI50 in the assay with SF-295 CNS is 1.67 µM; in the assay on LOX IMVI melanoma it was 3.48 µM; with SF-539 CNS it was 2.34 µM; in the assay on DU-145 prostate, 3.81 µM. Further, the total growth inhibition concentration (TGI) was 12.9 µM in the assay on OVCAR-8 ovarian; 17.6 µM in the assay on OVCAR-4 ovarian; 12.9 µM with UO-31 renal; 6.78 µM in the assay with T-47D breast; 8.89 µM in the assay with UACC-62 melanoma; 6.98 µM with SK-MEL-2 melanoma. Moreover, the total growth inhibition concentration (TGI) with SF-295 CNS is 3.87 µM; with LOX IMVI melanoma, 13.1 µM; in the assay with SF-539 CNS, 6.04 µM; with DU-145 prostate it was 13.2 µM.

With `CC1=C(C(=O)Nc2ccc3[nH]ncc3c2)C(c2ccc(F)cc2)NC(=O)N1` (stereo not given), the GI50 in the assay on OVCAR-8 ovarian is more than 25 µM; in the assay on OVCAR-4 ovarian it was more than 25 µM; in the assay with UO-31 renal, more than 17.5 µM; with T-47D breast, more than 25 µM; with UACC-62 melanoma it was more than 25 µM; in the assay with SK-MEL-2 melanoma, more than 25 µM. Also, the GI50 with SF-295 CNS, in the assay on LOX IMVI melanoma, with SF-539 CNS and in the assay with DU-145 prostate was more than 25 µM each time. Besides, the total growth inhibition concentration (TGI) with OVCAR-8 ovarian, with OVCAR-4 ovarian, in the assay on UO-31 renal, with T-47D breast, in the assay on UACC-62 melanoma and in the assay with SK-MEL-2 melanoma was more than 25 µM each time. Moreover, the TGI in the assay on SF-295 CNS, with LOX IMVI melanoma, in the assay on SF-539 CNS and in the assay on DU-145 prostate was more than 25 µM throughout.

In the case of `NC1C2C(CC(=O)O)OCC=C3CN4CCC1(C(=O)C(=O)O)C4CC32` (stereo not given), the TGI with OVCAR-8 ovarian, with OVCAR-4 ovarian, in the assay with UO-31 renal, in the assay on T-47D breast, in the assay with UACC-62 melanoma and in the assay on SK-MEL-2 melanoma was more than 100 µM each time. The total growth inhibition concentration (TGI) in the assay on SF-295 CNS, with LOX IMVI melanoma, in the assay on SF-539 CNS and with DU-145 prostate was more than 100 µM in each case.
